Measurements reported in patent publication US6348587B1, “2′-Fluoronucleosides” (Emory University, priority 1998, dated 2002).
Counter-ions that a name gives are not always drawn.

How the values were obtained:
HIV-1 (strain LAV) = experiment: Anti-HIV-1 activity in PHA-stimulated human PBM cells (virus quantitated by reverse transcriptase assay, day 6); assay type: cell-based; conditions: HIV-1 in human PBM cells
Method: The ability of nucleosides to inhibit HIV can be measured by various experimental techniques. One technique, described in detail below, measures the inhibition of viral replication in phytohemagglutinin (PHA) stimulated human peripheral blood mononuclear (PBM) cells infected with HIV-1 (strain LAV). The amount of virus produced is determined by measuring the virus-coded reverse transcriptase enzyme. The amount of enzyme produced is proportional to the amount of virus produced.
(§1) Antiviral and cytotoxicity assays: Anti-HIV-1 activity of the compounds is determined in human peripheral blood mononuclear (PBM) cells as described previously (Schinazi, R. F.; McMillan, A.; Cannon, D.; Mathis, R.; Lloyd, R. M. Jr.; Peck, A.; Sommadossi, J.-P.; St. Clair, M.; Wilson, J.; Furman, P. A.; Painter, G.; Choi, W.-B.; Liotta, D. C. Antimicrob. Agents Chemother. 1992, 36, 2423; Schinazi, R. F.; Sommadossi, J.-P.; Saalmann, V.; Cannon, D.; Xie, M.-Y.; Hart, G.; Smith, G.; Hahn, E. Antimicrob. Agents Chemother. 1990, 34, 1061). Stock solutions (20-40 mM) of the compounds were prepared in sterile DMSO and then diluted to the desired concentration in complete medium. […] Cells are infected with the prototype HIV-1LAI at a multiplicity of infection of 0.01. Virus obtained from the cell supernatant are quantitated on day 6 after infection by a reverse transcriptase assay using poly(rA)n.oligo(dT)12-18 as template-primer. The DMSO present in the diluted solution (<0.1%) should have no effect on the virus yield. The toxicity of the compounds can be assessed in human PBM, CEM, and Vero cells. The antiviral EC50 and cytotoxicity IC50 is obtained from the concentration-response curve using the median effective method described by Chou and Talalay (Adv. Enzyme Regul. 1984, 22, 27).
Three-day-old phytohemagglutinin-stimulated PBM cells 10^6 cells/ml) from hepatitis B and HIV-1 seronegative healthy donors are infected with HIV-1 (strain LAV) at a concentration of about 100 times the 50% tissue culture infectious dose (TICD 50) per ml and cultured in the presence and absence of various concentrations of antiviral compounds.
Approximately one hour after infection, the medium, with the compound to be tested (2 times the final concentration in medium) or without compound, is added to the flasks (5 ml; final volume 10 ml).
The cells are exposed to the virus (about 2×10^5 dpm/ml, as determined by reverse transcriptase assay) and then placed in a CO2 incubator. HIV-1 (strain LAV) is obtained from the Center for Disease Control, Atlanta, Ga. The methods used for culturing the PBM cells, harvesting the virus and determining the reverse transcriptase activity are those described by McDougal et al. (J. Immun. Meth. 76, 171-183, 1985) and Spiral et al. (J. Clin. Meth. 25, 97-99, 1987), except that flngizone was not included in the medium (see Schinazi, et al., Antimicrob. Agents Chemother. 32, 1784-1787 (1988); Id., 34:1061-1067 (1990)).
On day 6, the cells and supernatant are transferred to a 15 ml tube and centrifuged at about 900 g for 10 minutes. Five ml of supernatant are removed and the virus concentrated by centrifugation at 40,000 rpm for 30 minutes (Beckman 70.1 Ti rotor). The solubilized virus pellet is processed for determination of the levels of reverse transcriptase. Results are expressed in dpm/ml of sampled supernatant. Virus from smaller volumes of supernatant (1 ml) can also be concentrated by centrifugation prior to solubilization and determination of reverse transcriptase levels.

CEM cells = experiment: Cytotoxicity in CEM cells; assay type: cell-based, human
Method: as §1
The extent of anticancer activity can be easily assessed by assaying the compound according to the procedure below in a CEM cell or other tumor cell line assay. CEM cells are human lymphoma cells (a T-lymphoblastoid cell line that can be obtained from ATCC, Rockville, Md.). […] The toxicity is measured as IC50 micromolar). […] Drug solutions, including cycloheximide as a positive control, are plated in triplicate in 50 μl growth medium at 2 times the final concentration and allowed to equilibrate at 37° C. in a 5% CO2 incubator. Log phase cells are added in 50 μl growth medium to a final concentration of 2.5×10^3 (CEM and SK-MEL-28), 5×10^3 (MMAN, MDA-MB-435s, SKMES-1, DU-145, LNCap), or 1×10^4 (PC-3, MCF-7) cells/well and incubated for 3 (DU-145, PC-3, MMAN), 4 (MCF-7, SK-MEL-28, CEM), or 5 (SK-MES-1, MDA-MB-435s, LNCaP) days at 37° C. under a 5% CO2 air atmosphere. Control wells include media alone (blank) and cells plus media without drug. After growth period, 15 μl of Cell Titer 96 kit assay dye solution (Promega, Madison, Wis.) are added to each well and the plates are incubated 8 hr at 37° C. in a 5% CO2 incubator. Promega Cell Titer 96 kit assay stop solution is added to each well and incubated 4-8 hr in the incubator. Absorbance is read at 570 nm, blanking on the medium-only wells using a Biotek Biokinetics plate reader (Biotek, Winooski, Vt.). Average percent inhibition of growth compared to the untreated control is calculated. IC50, IC90, slope and r value are calculated by the method of Chou and Talalay. Chou T-C, Talalay P. Quantitative analysis of dose-effect relationships: The combined effects of multiple drugs or enzyme inhibitors. Adv Enzyme Regul 1984, 22:27-55.

PBM cells = experiment: Cytotoxicity in uninfected human PBM cells; assay type: cell-based
Method: (§2) Antiviral and cytotoxicity assays: Anti-HIV-1 activity of the compounds is determined in human peripheral blood mononuclear (PBM) cells as described previously (Schinazi, […].; Cannon, D.; Mathis, R.; Lloyd, R. M. Jr.; Peck, […].; St. Clair, M.; Wilson, J.; Furman, P. A.; Painter, G.; Choi, […]. Antimicrob. Agents Chemother. 1992, 36, 2423; Schinazi, […].; Cannon, D.; Xie, […].; Smith, G.; Hahn, E. Antimicrob. Agents Chemother. 1990, 34, 1061). Stock solutions (20-40 mM) of the compounds were prepared in sterile DMSO and then diluted to the desired concentration in complete medium. […] Cells are infected with the prototype HIV-1LAI at a multiplicity of infection of 0.01. Virus obtained from the cell supernatant are quantitated on day 6 after infection by a reverse transcriptase assay using poly(rA)n.oligo(dT)12-18 as template-primer. […] The toxicity of the compounds can be assessed in human PBM, CEM, and Vero cells. The antiviral EC50 and cytotoxicity IC50 is obtained from the concentration-response curve using the median effective method described by Chou and Talalay (Adv. Enzyme Regul. 1984, 22, 27). Mitogen stimulated uninfected human PBM cells (3.8×10^5 cells/ml) can be cultured in the presence and absence of drug under similar conditions as those used for the antiviral assay described above. The cells are counted after 6 days using a hemacytometer and the trypan blue exclusion method, as described by Schinazi et al., Antimicrobial Agents and Chemotherapy, 22(3), 499 (1982).

Vero cells = experiment: Cytotoxicity in Vero cells; assay type: cell-based
Method: as §1, with “[…].;” for “R. F.; McMillan, A.;”, “[…].;” for “A.; Sommadossi, J.-P.;”, “[…].” for “W.-B.; Liotta, D. C.”, “[…].;” for “R. F.; Sommadossi, J.-P.; Saalmann, V.;”, “[…].;” for “M.-Y.; Hart, G.;”

[1] = Cytotoxicity in Vero cells; assay type: cell-based; conditions: African green monkey, Vero cells
Method: as §1, with “[…].;” for “R. F.; McMillan, A.;”, “[…].;” for “A.; Sommadossi, J.-P.;”, “[…].” for “W.-B.; Liotta, D. C.”, “[…].;” for “R. F.; Sommadossi, J.-P.; Saalmann, V.;”, “[…].;” for “M.-Y.; Hart, G.;”

[2] = Cytotoxicity in uninfected human PBM cells; assay type: cell-based; conditions: human, mitogen-stimulated uninfected human PBM cells; PMC Cells
Method: as §2

[3] = molecular target: HIV-1 heterodimer p66/51 reverse transcriptase (Human immunodeficiency virus type 1 group M subtype B, UniProt P04585); experiment: HIV-1 reverse transcriptase extension assay, r(I)n.(dC)12-18 template-primer
Method: Extension assays were performed using a r(I)n.(dC)12-18 homopolymer template-primer (Pharmacia, Piscataway, N.J.) and the HIV-1 heterodimer p66/51 reverse transcriptase (RT, Biotechnology General, Rehovat, Israel). The standard reaction mixture (100 μl) contained 100 mM Tris hydrochloride (pH 8.0), 50 mM KCl, 2 mM MgCl2, 0.05 units/ml r(I)n.(dC)12-18, 5 mM DTT, 100 μg/ml Bovine Serum Albumin, and 1 μM ^3H-dCTP (23 Ci/mmol). 3TCTP (0.001-50 μM) was the positive control. Compounds were incubated 1 hr at 37° C. in the reaction mixture with 1 unit HIV-1 RT. The reaction was stopped with the addition of an equal volume of cold 10% TCA/0.05% sodium pyrophosphate and incubated 30 minutes at 4° C. The precipitated nucleic acids were harvested onto fiberglass filter paper using a Packard manual harvester (Meriden, Conn.). The radiolabel uptake in counts per minute (cpm) was determined using a Packard 9600 Direct Beta counter.

[4] = Human immunodeficiency virus 1, PBMC

**Q.** With `O=c1[nH]cnc2c1ncn2[C@@H]1O[C@@H](CO)C=C1F` [Compound 338, 9-(2,3-dideoxy-2-fluoro-α-L-gycero-pent-2-enofuranosyl)hypoxanthine] as the molecule, how does the EC50 (HIV-1 (strain LAV)) read?
**A.** > 100 µM

**Q.** What about the EC90 (HIV-1 (strain LAV)) of the same molecule?
**A.** > 100 µM

**Q.** What about the IC50 (CEM cells) of the same molecule?
**A.** > 100 µM

**Q.** What about the IC50 (PBM cells) of the same molecule?
**A.** > 100 µM

**Q.** Which EC50 (HIV-1 (strain LAV)) does the source give for `Nc1ccn([C@@H]2O[C@@H](CO)C=C2F)c(=O)n1` [Compound 323, 1-(2,3-dideoxy-2-fluoro-α-L-gycero-pent-2-enofuranosyl)cytosine] here?
**A.** > 100 µM

**Q.** What about the EC90 (HIV-1 (strain LAV)) of the same molecule?
**A.** > 100 µM

**Q.** And the IC50 (Vero cells)?
**A.** > 100 µM

**Q.** What about the IC50 (CEM cells) of the same molecule?
**A.** > 100 µM

**Q.** What about the IC50 (PBM cells) of the same molecule?
**A.** > 100 µM

**Q.** For `O=c1[nH]cnc2c1ncn2[C@H]1O[C@@H](CO)C=C1F` [Compound 337, 9-(2,3-dideoxy-2-fluoro-β-L-gycero-pent-2-enofuranosyl)hypoxanthine], which EC50 (HIV-1 (strain LAV)) is on record?
**A.** > 100 µM

**Q.** What about the EC90 (HIV-1 (strain LAV)) of the same molecule?
**A.** > 100 µM

**Q.** What about the IC50 (Vero cells) of the same molecule?
**A.** > 100 µM

**Q.** And the IC50 (CEM cells)?
**A.** > 100 µM

**Q.** What about the IC50 (PBM cells) of the same molecule?
**A.** > 100 µM

**Q.** Which EC50 (HIV-1 (strain LAV)) does the source give for `Nc1ncnc2c1ncn2[C@@H]1O[C@@H](CO)C=C1F` [Compound 336, 9-(2,3-dideoxy-2-fluoro-α-L-gycero-pent-2-enofuranosyl)adenine] here?
**A.** 47.6 µM

**Q.** What about the EC90 (HIV-1 (strain LAV)) of the same molecule?
**A.** 332 µM

**Q.** And the IC50 (Vero cells)?
**A.** > 100 µM

**Q.** And the IC50 (CEM cells)?
**A.** > 100 µM

**Q.** What about the IC50 (PBM cells) of the same molecule?
**A.** > 100 µM

**Q.** Which EC50 (HIV-1 (strain LAV); [4]) does the source give for `Cc1cn([C@H]2C[C@H](N=[N+]=[N-])[C@@H](CO)O2)c(=O)[nH]c1=O` [AZT, 3′-azido-3′-deoxythymidine, reference compound] here?
**A.** 0.004 µM

**Q.** What about the EC90 (HIV-1 (strain LAV); [4]) of the same molecule?
**A.** 0.04 µM

**Q.** And the IC50 [1]?
**A.** 29 µM

**Q.** And the IC50 at 6 days [2]?
**A.** > 100 µM

**Q.** Which EC50 (HIV-1 (strain LAV)) does the source give for `Cc1cn([C@H]2O[C@@H](CO)C=C2F)c(=O)[nH]c1=O` [Compound 318, 1-(2,3-Dideoxy-2-fluoro-(α,β)-L-gycero-pent-2-eno-furanosyl)thymine] here?
**A.** > 100 µM

**Q.** And the EC90 (HIV-1 (strain LAV))?
**A.** > 100 µM

**Q.** And the IC50 (Vero cells)?
**A.** > 100 µM

**Q.** What about the IC50 (CEM cells) of the same molecule?
**A.** > 100 µM

**Q.** And the IC50 (PBM cells)?
**A.** > 100 µM

**Q.** For `Nc1nc(=O)n(C2C=CC(COP(=O)(O)OP(=O)(O)OP(=O)(O)O)C2)cc1F` (mixture of isomers) [(±)-carbocyclic-D4FC-TP, cis-(±)-Carbocyclic 2′,3′-didehydro-2′,3′-dideoxy-5-fluorocytidine 5′-triphosphate, triethylhydrogenammonium salt], which EC50 [3] is on record?
**A.** 400 nM

**Q.** With `O=c1ccn([C@H]2O[C@@H](CO)C=C2F)c(=O)[nH]1` [Compound 316, 1-(2,3-Dideoxy-2-fluoro-(α,β)-L-gycero-pent-2-eno-furanosyl)uracil] as the molecule, how does the EC50 (HIV-1 (strain LAV)) read?
**A.** > 100 µM

**Q.** What about the EC90 (HIV-1 (strain LAV)) of the same molecule?
**A.** > 100 µM

**Q.** And the IC50 (Vero cells)?
**A.** > 100 µM

**Q.** And the IC50 (CEM cells)?
**A.** > 100 µM

**Q.** And the IC50 (PBM cells)?
**A.** > 100 µM

**Q.** For `Nc1ccn([C@H]2O[C@@H](CO)C=C2F)c(=O)n1` [Compound 322, 1-(2,3-dideoxy-2-fluoro-β-L-gycero-pent-2-enofuranosyl)cytosine], which EC50 (HIV-1 (strain LAV)) is on record?
**A.** 0.51 µM

**Q.** And the EC90 (HIV-1 (strain LAV))?
**A.** 4.3 µM

**Q.** And the IC50 (Vero cells)?
**A.** > 100 µM

**Q.** And the IC50 (CEM cells)?
**A.** > 100 µM

**Q.** What about the IC50 (PBM cells) of the same molecule?
**A.** > 100 µM

**Q.** For `Nc1ncnc2c1ncn2[C@H]1O[C@@H](CO)C=C1F` [Compound 335, 9-(2,3-dideoxy-2-fluoro-β-L-gycero-pent-2-enofuranosyl)adenine], which EC50 (HIV-1 (strain LAV)) is on record?
**A.** 1.5 µM

**Q.** What about the EC90 (HIV-1 (strain LAV)) of the same molecule?
**A.** 15.1 µM

**Q.** And the IC50 (Vero cells)?
**A.** > 100 µM

**Q.** What about the IC50 (CEM cells) of the same molecule?
**A.** > 100 µM

**Q.** And the IC50 (PBM cells)?
**A.** > 100 µM
